In PMC9502272, “A Metabolomics Approach for Predicting OATP1B-Type Transporter-Mediated Drug–Drug Interaction Liabilities” (Pharmaceutics, 2022):
Read-outs that look alike come from different tables or passages of the source.

Tests used:
OATP1B [1] = experiment: Clinical study: OATP1B biomarkers in patients receiving cabazitaxel; type: in vivo, human; details: cabazitaxel 1 h i.v. infusion up to 25 mg/m^2
Description: Samples from patients with solid tumors were collected from 3 clinical studies conducted in accordance with the principles of the Declaration of Helsinki, and all study protocols were approved by Institutional Review Boards at either the National Cancer Institute (Bethesda, MD, USA) or the Erasmus Medical Center Cancer Institute (Rotterdam, The Netherlands). All patients provided written informed consent for their blood samples and medical information to be used for research purposes.
An Accucore aQ column (50 × 2.1 mm, dp = 2.6 μm; Thermo Fisher Scientific) was protected by a C18 AQUASIL guard cartridge (2.1 mm × 10 mm, dp = 3 μm; Thermo Fisher Scientific). The injection volume of sample was 5.0 μL. The temperature of the autosampler rack was 4 °C, and the temperature of the column was maintained at 20 °C. The mobile phase was composed of solvent A (2 mmol ammonium acetate in water) and solvent B (100% methanol), and the total run time was 4.6 min. The gradient conditions were as follows: 0–0.5 min, 45% B; 0.5–2.0 min, 45 to 90%, 2.0–4.0 min, 90% B; 4.0–4.6 min, 45% B, delivered at a flow rate of 0.4 mL/min. The MS assay setting with the positive voltage applied to the ESI capillary was set at 3791 V, and the capillary temperatures was 335 °C with a vaporizer temperature of 350 °C. […] The lower limit of quantitation (LLOQ) for both analytes was determined to be 0.5 ng/mL. […]

[2] = parameters: method as in ref PMIDs of Table S2 (18321482, 35456528, 28612269, 10997930, 27796539, 23299792, 11129729, 22808947, 12844327); details: ref PMIDs of Table S2 (18321482, 35456528, 28612269, 10997930, 27796539, 23299792, 11129729, 22808947, 12844327); cited from earlier work
OATP1B [3] = details: patients, paclitaxel (Taxol) 1 h i.v. infusion, 50 or 100 mg/m^2; dose-dependent
Experimental: An Accucore aQ column (50 × 2.1 mm, dp = 2.6 μm; Thermo Fisher Scientific) was protected by a C18 AQUASIL guard cartridge (2.1 mm × 10 mm, dp = 3 μm; Thermo Fisher Scientific). The injection volume of sample was 5.0 μL. The temperature of the autosampler rack was 4 °C, and the temperature of the column was maintained at 20 °C. The mobile phase was composed of solvent A (2 mmol ammonium acetate in water) and solvent B (100% methanol), and the total run time was 4.6 min. The gradient conditions were as follows: 0–0.5 min, 45% B; 0.5–2.0 min, 45 to 90%, 2.0–4.0 min, 90% B; 4.0–4.6 min, 45% B, delivered at a flow rate of 0.4 mL/min. The MS assay setting with the positive voltage applied to the ESI capillary was set at 3791 V, and the capillary temperatures was 335 °C with a vaporizer temperature of 350 °C. Argon was used as the collision gas at a pressure of 1.5 mTorr. […] The lower limit of quantitation (LLOQ) for both analytes was determined to be 0.5 ng/mL. […]
(§1) Pharmacokinetic parameters were derived from non-compartmental analysis using Phoenix WinNonlin version 8.0 (Certara, Princeton, NJ, USA). The peak plasma concentration (Cmax) was determined by visual inspection of the data from the concentration–time curves. […]

[4] = target: T1, OATP1B-type transporters (Oatp1b2) (Mus musculus, UniProt Q9JJL3); experiment: Murine pharmacokinetic study: influence of OATP1B inhibitors on plasma CDCA-24G in wild-type mice; type: in vivo; details: rifampin 20 mg/kg i.v. or paclitaxel 10 mg/kg i.v.
T1 construct: was performed in wild-type mice and Oatp1b2(−/−) mice; from tissue; host or cells: living wild-type mice (DBA/1LacJ or FVB background); hepatic transporter in vivo
T1 sequence (Q9JJL3 1-689): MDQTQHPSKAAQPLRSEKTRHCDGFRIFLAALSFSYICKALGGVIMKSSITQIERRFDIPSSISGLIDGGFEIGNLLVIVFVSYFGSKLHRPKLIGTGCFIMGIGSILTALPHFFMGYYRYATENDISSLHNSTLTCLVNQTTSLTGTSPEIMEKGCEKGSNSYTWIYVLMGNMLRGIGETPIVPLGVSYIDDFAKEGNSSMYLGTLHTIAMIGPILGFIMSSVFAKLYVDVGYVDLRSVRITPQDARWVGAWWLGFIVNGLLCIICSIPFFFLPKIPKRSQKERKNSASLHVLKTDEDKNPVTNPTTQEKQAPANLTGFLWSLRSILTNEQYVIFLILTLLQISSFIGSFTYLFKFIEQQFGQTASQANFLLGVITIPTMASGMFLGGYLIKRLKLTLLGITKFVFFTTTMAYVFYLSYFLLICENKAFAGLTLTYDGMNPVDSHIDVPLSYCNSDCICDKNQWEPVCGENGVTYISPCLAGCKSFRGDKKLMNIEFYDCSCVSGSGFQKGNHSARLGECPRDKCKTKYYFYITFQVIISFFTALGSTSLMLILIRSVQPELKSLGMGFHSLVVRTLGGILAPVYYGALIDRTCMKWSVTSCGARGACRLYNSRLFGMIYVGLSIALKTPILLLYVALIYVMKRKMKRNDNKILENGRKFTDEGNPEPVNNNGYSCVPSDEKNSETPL
Experimental: In these experiments, serial whole blood samples were collected in heparinized tubes immediately prior to drug administration (pre-dose) and at 0.25, 0.5, 1, 2, and 4 h after administration from the submandibular vein for the initial three time-points, from the retro-orbital sinus vein for the subsequent two time-points, and by cardiac puncture at the terminal time-point. Whole blood samples were centrifuged at 11,000 rpm for 5 min; then, the plasma supernatants were collected and stored at −80 °C until analysis by a validated method based on LC-MS/MS.
An Accucore aQ column (50 × 2.1 mm, dp = 2.6 μm; Thermo Fisher Scientific) was protected by a C18 AQUASIL guard cartridge (2.1 mm × 10 mm, dp = 3 μm; Thermo Fisher Scientific). The injection volume of sample was 5.0 μL. The temperature of the autosampler rack was 4 °C, and the temperature of the column was maintained at 20 °C. The mobile phase was composed of solvent A (2 mmol ammonium acetate in water) and solvent B (100% methanol), and the total run time was 4.6 min. […]
as §1

OATP1B3 = tested on: OATP1B3; parameters: method as in ref PMIDs of Table S2 (18321482, 35456528, 28612269, 10997930, 11129729, 22808947, 12844327); details: ref PMIDs of Table S2 (18321482, 35456528, 28612269, 10997930, 11129729, 22808947, 12844327); cited from earlier work
OATP1B1 = target: T2, OATP1B1 (Homo sapiens, UniProt Q9Y6L6); parameters: method as in ref PMIDs of Table S2 (18321482, 35456528, 28612269, 10997930, 11129729, 22808947, 12844327); details: ref PMIDs of Table S2 (18321482, 35456528, 28612269, 10997930, 11129729, 22808947, 12844327); cited from earlier work
T2 construct: expressed in transfected cells; host or cells: HEK293 (ATCC)
T2 sequence (Q9Y6L6 1-691): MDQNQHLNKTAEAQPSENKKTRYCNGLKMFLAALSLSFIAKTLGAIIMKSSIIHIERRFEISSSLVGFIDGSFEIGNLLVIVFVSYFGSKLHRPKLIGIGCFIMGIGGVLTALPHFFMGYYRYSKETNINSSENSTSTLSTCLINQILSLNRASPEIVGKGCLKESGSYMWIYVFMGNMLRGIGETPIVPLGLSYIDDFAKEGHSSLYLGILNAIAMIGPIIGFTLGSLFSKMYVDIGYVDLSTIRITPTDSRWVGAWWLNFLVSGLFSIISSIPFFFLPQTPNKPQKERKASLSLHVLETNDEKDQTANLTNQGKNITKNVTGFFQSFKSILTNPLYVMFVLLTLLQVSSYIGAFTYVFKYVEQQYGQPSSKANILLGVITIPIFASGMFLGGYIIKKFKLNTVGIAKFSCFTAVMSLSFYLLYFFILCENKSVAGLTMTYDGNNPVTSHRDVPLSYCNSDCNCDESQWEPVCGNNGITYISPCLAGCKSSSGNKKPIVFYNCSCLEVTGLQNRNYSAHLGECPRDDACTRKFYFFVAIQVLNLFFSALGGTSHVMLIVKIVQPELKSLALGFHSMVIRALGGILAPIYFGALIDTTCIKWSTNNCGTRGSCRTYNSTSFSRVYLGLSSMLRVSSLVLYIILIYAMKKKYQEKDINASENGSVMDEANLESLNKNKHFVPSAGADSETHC

Oatp1a/1b = experiment: Baseline plasma biomarker levels in Oatp1a/1b(−/−) cluster-knockout vs wild-type mice; type: in vivo, mouse
Experimental: Plasma concentrations of levels of CDCA-24G and glycochenodeoxycholate-3-sulfate (GCDCA-S) were determined using LC-MS/MS using a Vanquish UHPLC coupled with a Quantiva triple quadrupole mass spectrometer (Thermo Fisher Scientific, Waltham, MA, USA). An Accucore aQ column (50 × 2.1 mm, dp = 2.6 μm; Thermo Fisher Scientific) was protected by a C18 AQUASIL guard cartridge (2.1 mm × 10 mm, dp = 3 μm; Thermo Fisher Scientific). The injection volume of sample was 5.0 μL. The temperature of the autosampler rack was 4 °C, and the temperature of the column was maintained at 20 °C. The mobile phase was composed of solvent A (2 mmol ammonium acetate in water) and solvent B (100% methanol), and the total run time was 4.6 min. The gradient conditions were as follows: 0–0.5 min, 45% B; 0.5–2.0 min, 45 to 90%, 2.0–4.0 min, 90% B; 4.0–4.6 min, 45% B, delivered at a flow rate of 0.4 mL/min. The MS assay setting with the positive voltage applied to the ESI capillary was set at 3791 V, and the capillary temperatures was 335 °C with a vaporizer temperature of 350 °C. Argon was used as the collision gas at a pressure of 1.5 mTorr. Precursor molecular ions, and product ions were recorded for the confirmation and detection of GCDCA-S (528.4 > 448.3) and CDCA-24G (567.4 > 391.1), using [^2H5]-GCDCA-S (535.5 > 453.3) and [^2H5]-CDCA-24G (572.5 > 396.1) as respective internal standards. The lower limit of quantitation (LLOQ) for both analytes was determined to be 0.5 ng/mL. […]
Plasma concentrations of coproporphyrin I (CP-I) and III (CP-III) were determined similarly by LC-MS/MS. […] Precursor molecular ions and product ions were recorded for confirmation and detection of CP-I (655.4 > 596.4) and CP-III (655.4 > 596.3), using [^2H4]-CP-III (659.4 > 600.3) as the internal standard for both analytes. The LLOQ for both analytes were determined to be 1 ng/mL, and the within-run and between-run precisions as well as the accuracy were always within acceptable limits.

Compound | Cmax [2] | Effect on circulating levels of CDCA-24G [4] | IC50 (OATP1B3) | Observed changes in plasma levels in Oatp1a/1b(−/−), OATP1B1(tg) or OATP1B3(tg) mice vs wild type, compared with CDCA-24G (Oatp1a/1b) | other results
CO[C@H]1C(=O)[C@]2(C)[C@@H](OC)C[C@H]3OC[C@@]3(OC(C)=O)[C@H]2[C@H](OC(=O)c2ccccc2)[C@]2(O)C[C@H](OC(=O)[C@H](O)[C@@H](NC(=O)OC(C)(C)C)c3ccccc3)C(C)=C1C2(C)C [Cabazitaxel, cabazitaxel] | 0.193 µM |  |  |  | Effect on plasma levels of CDCA-24G (OATP1B [1]): not associated with elevated plasma levels; Effect on plasma levels of GCDCA-S (OATP1B [1]): not associated with elevated plasma levels
CC(=O)O[C@H]1C(=O)[C@@]2(C)[C@H]([C@H](OC(=O)c3ccccc3)[C@]3(O)C[C@H](OC(=O)[C@H](O)[C@@H](NC(=O)c4ccccc4)c4ccccc4)C(C)=C1C3(C)C)[C@]1(OC(C)=O)CO[C@@H]1C[C@@H]2O [Paclitaxel, paclitaxel] | 9.6 µM | transient, statistically significant increase | 500 nM |  | Effect on plasma levels of CDCA-24G (OATP1B [3]): elevated
CO[C@H]1/C=C/O[C@@]2(C)Oc3c(C)c(O)c4c(O)c(c(/C=N/N5CCN(C)CC5)c(O)c4c3C2=O)NC(=O)/C(C)=C\C=C\[C@H](C)[C@H](O)[C@@H](C)[C@@H](O)[C@@H](C)[C@H](OC(C)=O)[C@@H]1C [Rifampin, rifampin] | 29 µM | transient, statistically significant increase | 2600 nM |  | IC50 (OATP1B1): 1500 nM
coproporphyrin I [CP-I] |  |  |  | much more modest | 
coproporphyrin III [CP-III] |  |  |  | much more modest | 
